Results as given in patent publication US12478623B2 (INTRA-CELLULAR THERAPIES, INC., priority 2019, dated 2025).

Tests used:
Male Wistar rats = assay: Conditioned avoidance response (CAR) test, Example 1; assay type: in vivo, rat; settings: for Suppression of CAR: 20 minutes; for Treatment effect in CAR: FIG. 2
schizophrenic patients = settings: cited from earlier work
social defeat model = settings: in vivo; cited from earlier work
[1] = system: pyramidal cells in rat mPFC slices; settings: lumateperone alone; cited from earlier work
[2] = system: mTOR pathway, including protein kinase Akt and p70S6 kinase; settings: cited from earlier work
[3] = system: patients with acute exacerbated schizophrenia; settings: 60 mg P.O. once daily for up to 28 days, vs placebo; cited from earlier work
[4] = schizophrenia with co-morbid depression

Question: For `CN1CCN2c3c(cccc31)[C@@H]1CN(CCCC(=O)c3ccc(F)cc3)CC[C@@H]12` [lumateperone, 4-((6bR,10aS)-3-methyl-2,3,6b,9,10,10a-hexahydro-1H-pyrido[3′,4′: 4,5]pyrrolo[1,2,3-de]quinoxalin-8(7H)-yl)-1-(4-fluorophenyl)-1-butanone], which “Suppression of CAR” value (Male Wistar rats; lumateperone 7 mg/kg i.p. (saline), vs vehicle/saline, FIG. 3) is on record?
Answer: Its value is “significantly suppressed CAR compared to vehicle/saline”.

Question: What about the “CAR, comparison between groups” value (Male Wistar rats; lumateperone 7 mg/kg, 90 minutes, vs lumateperone 3 mg/kg/saline, FIG. 4) of the same molecule?
Answer: The value was “significantly different than lumateperone (3 mg/kg)/saline”.

Question: And the “Suppression of CAR” value (Male Wistar rats; lumateperone tosylate 3 mg/kg i.p., vs vehicle, FIG. 1)?
Answer: The value was “significantly suppressed CAR compared to vehicle”.

Question: And the “Suppression of CAR” value (Male Wistar rats; lumateperone tosylate 10 mg/kg i.p., vs vehicle, FIG. 1)?
Answer: Its value is “significantly suppressed CAR compared to vehicle”.

Question: And the “Treatment effect in CAR” value (Male Wistar rats; lumateperone tosylate 10 mg/kg i.p., 90 minutes)?
Answer: Its value is “significant treatment effect”.

Question: And the Depressive symptoms (schizophrenic patients; [4])?
Answer: Its Depressive symptoms is “improves the depressive symptoms”.

Question: And the Safety profile (schizophrenic patients; [4])?
Answer: Its Safety profile is “placebo-level safety profile and no metabolic changes or extra-pyramidal side effects”.

Question: And the “Social functioning, positive and negative symptoms, cognition” value (schizophrenic patients; schizophrenic patients, at a low striatal D2 receptor occupancy)?
Answer: Its value is “significantly improve social functioning, positive and negative symptoms, as well as impaired cognition”.

Question: What about the “Effect in the social defeat model” value (social defeat model) of the same molecule?
Answer: Its value is “antidepressant-like effects”.

Question: And the “NMDA and AMPA receptor-induced currents” value [1]?
Answer: The value was “activates both NMDA and AMPA receptor-induced currents”.

Question: And the “Phosphorylation of mTOR pathway proteins” value [2]?
Answer: The value was “increases phosphorylation of key proteins in the mTOR pathway”.

Question: What about the “Symptoms of emotional experience” value [3] of the same molecule?
Answer: Its value is “significant and unexpected improvement in symptoms of emotional experience compared to placebo”.

Question: Which “Suppression of CAR” value (Male Wistar rats; risperidone 0.4 mg/kg i.p., vs vehicle, FIG. 1) does the source give for `Cc1nc2n(c(=O)c1CCN1CCC(c3noc4cc(F)ccc34)CC1)CCCC2` [risperidone] here?
Answer: Its value is “significantly suppressed CAR compared to vehicle”.

Question: What about the “Treatment effect in CAR” value (Male Wistar rats; risperidone 0.4 mg/kg i.p., 90 minutes) of the same molecule?
Answer: Its value is “not for the other doses or for risperidone”.
